In patent US20250177557A1, “METHODS OF PRODUCING MICROBUBBLE DRUG CONJUGATES, VIRAL GENE THERAPY MICROBUBBLE CONJUGATES AND TARGETED MICROBUBBLES” (priority 2022, published 2025):

Assays:
[1] = MR guided focused ultrasound, one hemisphere sonicated
Procedure: AAV2-GFP MDCs were injected into healthy rodents and FUS sonications used to open the BBB in the two brain regions affected by Parkinson's disease, the striatum (ST) and substantia nigra (SN). MR contrast agent gadolinium was co-injected and MR imaging performed to confirm BBB opening in the two regions.
CDNF protein neurotrophic drug was conjugated to MDCs and delivered to the SN and ST in this manner. Only one hemisphere was sonicated so the animals acted as their own control.

human SHSY-5Y cells = assay: Neuroprotection of differentiated SHSY-5Y cells against parkinsonian neurotoxins (CFDA cell viability); assay type: cell-based
Procedure: Neuroprotection was tested in the well-established neuronal model of human SHSY-5Y cells (Lopes, F. M.,. et al. (2010) Brain Res. 1337, 85-94) treated with parkinsonian neurotoxins. Human SHSY-5Y cells were grown in 24 well dishes and differentiated into neuron-like cells by treatment with 10 μM retinoic acid (RA) for 7 days (FIG. 8A).
Cell viability was quantified by the CFDA assay as described previously (Sandhu, J. K., et al. (2009) Neurobiol. Dis. 33, 405-414.).
Recombinant human GDNF at 50 ng/ml was used as a positive control.

[2] = brain mets patients; cited from earlier work
[3] = patients; cited from earlier work

Substance: CDNF-MDCs: Cerebral Dopamine Neurotrophic factor protein conjugated to microbubbles
- CDNF concentration delivered to ST and SN, sonicated vs. non-sonicated hemisphere (ELISA tissue analysis) [1]: significant CDNF concentration delivered to the sonicated hemispheres
- Neuroprotection against thapsigargin (cell viability) (human SHSY-5Y cells; 1.0 μM thapsigargin ~16 h, pre-treatment, rhGDNF 50 ng/ml, CDNF-MDCs 25-250 ng/ml): completely protected
- Neuroprotection against MPP+ (cell viability) (human SHSY-5Y cells; 1.0 mM MPP+ ~16 h, pre-treatment, rhGDNF 50 ng/ml, CDNF-MDCs 25-250 ng/ml): completely protected
- Concentrations at which maximum neuroprotection was reached (human SHSY-5Y cells; MPP+ or thapsigargin): 25 to 250 ng/mL

Substance: Keytruda: checkpoint inhibitor antibody
- Response, share of patients [2]: about one third

Substance: ipilimumab
- Incidence of grade 3 or -4 treatment-related AEs [3]: 28%
